{"source": "patent US20230365592A1", "about": "(Agios Pharmaceuticals, Inc., priority 2022, published 2023)", "data": [{"biological_target": "T1, human PAH with the R408W mutation (Homo sapiens, UniProt P00439, R408W)", "T1 construct": "expressed in transfected cells", "T1 sequence (P00439 1-452 R408W)": "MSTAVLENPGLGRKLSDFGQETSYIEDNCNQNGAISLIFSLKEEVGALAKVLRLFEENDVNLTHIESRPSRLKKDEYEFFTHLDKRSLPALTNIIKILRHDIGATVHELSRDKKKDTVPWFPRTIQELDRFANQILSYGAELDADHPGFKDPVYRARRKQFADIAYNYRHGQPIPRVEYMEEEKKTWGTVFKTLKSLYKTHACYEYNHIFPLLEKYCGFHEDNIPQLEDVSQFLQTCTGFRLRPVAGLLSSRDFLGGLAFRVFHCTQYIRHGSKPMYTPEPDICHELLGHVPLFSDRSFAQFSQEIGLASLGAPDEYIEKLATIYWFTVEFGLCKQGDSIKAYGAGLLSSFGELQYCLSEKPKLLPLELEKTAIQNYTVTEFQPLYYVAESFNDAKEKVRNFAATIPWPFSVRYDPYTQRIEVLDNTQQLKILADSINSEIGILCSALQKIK", "assay": "Cell Based Phenylalanine Flux Assay;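 also: after compound treatment, cells received sepiapterin plus isotope-labelled Phenylalanine for 4 hours, then labelled Tyrosine in the medium was quantified, 10-point 2-fold dilution series run in duplicate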", "details": "A375 cells expressing R408W PAH; 24 hrs with compound, then 20 µM sepiapterin and 800 µM 13C9,15N-Phenylalanine for 4 hours; 13C-Tyrosine by LC-MS; average where tested multiple times; read-out: AC50", "units": {"AC50": "nM"}, "values": [{"smiles": "Cc1n[nH]cc1-c1nnc(C(=O)N2CCc3[nH]cnc3C2c2cc3c(C)cccn3n2)o1", "note": "(centres unmarked)", "AC50": "1000 to 5000"}, {"smiles": "c1cnnc(-c2nnc(N3CCc4[nH]cnc4C3c3cc4ccccn4n3)o2)c1", "note": "(centres unmarked)", "AC50": "1000 to 5000"}, {"smiles": "COc1ccc2c(C(=O)N3CCc4[nH]cnc4C3c3cc4c(OC)cccn4n3)cnn2c1", "note": "(centres unmarked)", "AC50": "> 5000"}, {"smiles": "Cc1nnc(C(=O)N2CCc3[nH]cnc3C2c2cc3c(F)cccn3n2)o1", "note": "(centres unmarked)", "AC50": "1000 to 5000"}, {"smiles": "Cc1nnc(C(=O)N2CCc3[nH]cnc3C2c2cc3ccc(C(F)(F)F)cn3n2)o1", "note": "(centres unmarked)", "AC50": "1000 to 5000"}, {"smiles": "Cn1ncnc1C(=O)N1CCc2[nH]cnc2C1c1cc2cccc(Cl)n2n1", "note": "(centres unmarked)", "AC50": "1000 to 5000"}, {"smiles": "CC(O)c1nnc(C(=O)N2CCc3[nH]cnc3C2c2cc3ccccn3n2)o1", "note": "[4S enantiomer of (1R)-1-{5-[4-{pyrazolo[1,5-a]pyridin-2-yl}-]", "AC50": "1000 to 5000"}, {"smiles": "O=C(c1cnco1)N1CCc2[nH]cnc2[C@@H]1c1cc2ccccn2n1", "note": "(single isomer, unassigned)", "AC50": "1000 to 5000"}]}, {"biological_target": "T1, human PAH with the R408W mutation", "assay": "Cell Based Phenylalanine Flux Assay", "details": "A375 cells expressing human PAH R408W; 24 hrs compound incubation; 13C-Tyrosine by LC-MS; average where tested multiple times; read-out: AC50", "units": {"AC50": "nM"}, "values": [{"smiles": "Cc1cccn2nc([C@@H]3c4nc[nH]c4CCN3c3nnc(-c4cnccn4)o3)cc12", "note": "[Example 2157, (S)-2-(4-(4-methylpyrazolo[1,5-a]pyridin-2-yl)-1,4,6,7-tetrahydro-5H-imidazo[4,5-c]pyridin-5-yl)-5-(pyrazin-2-yl)-1,3,4-oxadiazole]", "AC50": "500 to 1000"}, {"smiles": "Cc1cc(-c2nnc(C(=O)N3CCc4[nH]cnc4[C@H]3c3cc4c(C5CC5)cccn4n3)o2)nn1C", "note": "[Example 1933, (S)-(4-(4-cyclopropylpyrazolo[1,5-a]pyridin-2-yl)-1,4,6,7-tetrahydro-5H-imidazo[4,5-c]pyridin-5-yl)(5-(1,5-dimethyl-1H-pyrazol-3-yl)-1,3,4-oxadiazol-2-yl)methanone]", "AC50": "500 to 1000"}, {"smiles": "Cc1cccc2cc([C@@H]3c4nc[nH]c4CCN3C(=O)c3ocnc3C3CC3)nn12", "note": "[Example 2070, (S)-(4-cyclopropyloxazol-5-yl)(4-(7-methylpyrazolo[1,5-a]pyridin-2-yl)-1,4,6,7-tetrahydro-5H-imidazo[4,5-c]pyridin-5-yl)methanone]", "AC50": "< 500"}, {"smiles": "Cc1cccn2nc([C@@H]3c4nc[nH]c4CCN3c3ncc(N)cn3)cc12", "note": "[Example 1827, (S)-2-(4-(4-methylpyrazolo[1,5-a]pyridin-2-yl)-6,7-dihydro-1H-imidazo[4,5-c]pyridin-5(4H)-yl)pyrimidin-5-amine]", "AC50": "500 to 1000"}, {"smiles": "CC(C)c1cccn2nc([C@@H]3c4nc[nH]c4CCN3C(=O)c3nnc(-c4cnn(C(F)(F)F)c4)o3)cc12", "note": "[Example 1946, (S)-(4-(4-isopropylpyrazolo[1,5-a]pyridin-2-yl)-1,4,6,7-tetrahydro-5H-imidazo[4,5-c]pyridin-5-yl)(5-(1-(trifluoromethyl)-1H-pyrazol-4-yl)-1,3,4-oxadiazol-2-yl)methanone]", "AC50": "< 500"}, {"smiles": "O=C(c1nnc(-c2ncccc2F)o1)N1CCc2[nH]cnc2[C@@H]1c1cc2c(C3CC3)cccn2n1", "note": "[Example 1854, (R)-(4-(4-cyclopropylpyrazolo[1,5-a]pyridin-2-yl)-1,4,6,7-tetrahydro-5H-imidazo[4,5-c]pyridin-5-yl)(5-(3-fluoropyridin-2-yl)-1,3,4-oxadiazol-2-yl)methanone]", "AC50": "> 5000"}, {"smiles": "Cc1cccnc1-c1nnc(N2CCc3[nH]cnc3[C@H]2c2cc3ccccn3n2)o1", "note": "[Example 2267, (S)-2-(3-methylpyridin-2-yl)-5-(4-(pyrazolo[1,5-a]pyridin-2-yl)-1,4,6,7-tetrahydro-5H-imidazo[4,5-c]pyridin-5-yl)-1,3,4-oxadiazole]", "AC50": "< 500"}, {"smiles": "Fc1cccc(N2CCc3[nH]cnc3[C@H]2c2cc3ccccn3n2)n1", "note": "[Example 2135, (S)-5-(6-fluoropyridin-2-yl)-4-(pyrazolo[1,5-a]pyridin-2-yl)-4,5,6,7-tetrahydro-1H-imidazo[4,5-c]pyridine]", "AC50": "< 500"}]}, {"biological_target": "T1, human PAH with the R408W mutation", "assay": "Cell Based Phenylalanine Flux Assay", "details": "A375 cells expressing human R408W PAH; 24 hrs compound incubation; 13C-Tyrosine by LC-MS; average where tested multiple times; read-out: AC50", "units": {"AC50": "nM"}, "values": [{"smiles": "Cc1cccn2nc([C@H]3c4nc[nH]c4CCN3C(=O)c3nnc(-c4cccnc4)o3)cc12", "note": "[Example 895, (R)-(4-(4-methylpyrazolo[1,5-a]pyridin-2-yl)-6,7-dihydro-1H-imidazo[4,5-c]pyridin-5(4H)-yl)(5-(pyridin-3-yl)-1,3,4-oxadiazol-2-yl)methanone]", "AC50": "> 5000"}, {"smiles": "Cn1cc(C(=O)N2CCc3[nH]cnc3[C@@H]2c2cc3ccccn3n2)c(C(F)F)n1", "note": "[Example 663, (R)-(3-(difluoromethyl)-1-methyl-1H-pyrazol-4-yl)(4-(pyrazolo[1,5-a]pyridin-2-yl)-6,7-dihydro-1H-imidazo[4,5-c]pyridin-5(4H)-yl)methanone]", "AC50": "1000 to 5000"}, {"smiles": "CC1(c2nnc(C(=O)N3CCc4[nH]cnc4[C@@H]3c3cc4cccc(C(F)(F)F)n4n3)o2)CC1", "note": "[Example 1355, (R)-(5-(1-methylcyclopropyl)-1,3,4-oxadiazol-2-yl)(4-(7-(trifluoromethyl)pyrazolo[1,5-a]pyridin-2-yl)-6,7-dihydro-1H-imidazo[4,5-c]pyridin-5(4H)-yl)methanone]", "AC50": "1000 to 5000"}, {"smiles": "O=C(c1ocnc1C(F)F)N1CCc2[nH]cnc2[C@@H]1c1cc2ccccn2n1", "note": "[Example 631, (R)-(4-(difluoromethyl)oxazol-5-yl)(4-(pyrazolo[1,5-a]pyridin-2-yl)-6,7-dihydro-1H-imidazo[4,5-c]pyridin-5(4H)-yl)methanone]", "AC50": "1000 to 5000"}, {"smiles": "Cc1cccn2nc([C@H]3c4nc[nH]c4CCN3C(=O)c3nc(C(F)(F)F)nn3C)cc12", "note": "[Example 1057, (R)-(1-methyl-3-(trifluoromethyl)-1H-1,2,4-triazol-5-yl)(4-(4-methylpyrazolo[1,5-a]pyridin-2-yl)-6,7-dihydro-1H-imidazo[4,5-c]pyridin-5(4H)-yl)methanone]", "AC50": "> 5000"}, {"smiles": "Cn1nc(Cl)nc1C(=O)N1CCc2[nH]cnc2[C@H]1c1cc2cccc(C(F)(F)F)n2n1", "note": "[Example 1162, (S)-(3-chloro-1-methyl-1H-1,2,4-triazol-5-yl)(4-(7-(trifluoromethyl)pyrazolo[1,5-a]pyridin-2-yl)-6,7-dihydro-1H-imidazo[4,5-c]pyridin-5(4H)-yl)methanone]", "AC50": "< 500"}, {"smiles": "COc1cccn2nc([C@@H]3c4nc[nH]c4CCN3C(=O)c3cc(C(F)F)nn3C)cc12", "note": "[Example 886, (S)-(3-(difluoromethyl)-1-methyl-1H-pyrazol-5-yl)(4-(4-methoxypyrazolo[1,5-a]pyridin-2-yl)-6,7-dihydro-1H-imidazo[4,5-c]pyridin-5(4H)-yl)methanone]", "AC50": "< 500"}, {"smiles": "Cc1nc(C(C)(C)F)oc1C(=O)N1CCc2[nH]cnc2[C@@H]1c1cc2cccc(C)n2n1", "note": "[Example 1253, (R)-(2-(2-fluoropropan-2-yl)-4-methyloxazol-5-yl)(4-(7-methylpyrazolo[1,5-a]pyridin-2-yl)-6,7-dihydro-1H-imidazo[4,5-c]pyridin-5(4H)-yl)methanone]", "AC50": "1000 to 5000"}, {"smiles": "CC(C)(O)c1nc(C2CC2)c(C(=O)N2CCc3[nH]cnc3[C@H]2c2cc3ccccn3n2)o1", "note": "[Example 624, (S)-(4-cyclopropyl-2-(2-hydroxypropan-2-yl)oxazol-5-yl)(4-(pyrazolo[1,5-a]pyridin-2-yl)-6,7-dihydro-1H-imidazo[4,5-c]pyridin-5(4H)-yl)methanone]", "AC50": "1000 to 5000"}, {"smiles": "Cc1cccn2nc([C@H]3c4nc[nH]c4CCN3C(=O)c3oc(C4(O)CC4)nc3C(F)F)cc12", "note": "[Example 1221, (R)-(4-(difluoromethyl)-2-(1-hydroxycyclopropyl)oxazol-5-yl)(4-(4-methylpyrazolo[1,5-a]pyridin-2-yl)-6,7-dihydro-1H-imidazo[4,5-c]pyridin-5(4H)-yl)methanone]", "AC50": "1000 to 5000"}]}]}
